According to patent US6329338A, “Derivatives of cyclodepsipeptide PF1022 substance” (Meiji Seika Kaisha, Ltd., priority 1995, dated 2001):

Columns and labels:
[1] = system: Haemonchus contortus; test: in vivo test on anthelmintic activity against sheep parasites (faecal egg count before and after dosing); settings: sheep infested with Haemonchus contortus; oral, gelatine capsules
Excerpt: "in vivo" Test on Anthelmintic Activity Against Sheep Parasites
To sheep on which a nematode, Haemonchus contortus has been infested, a test compounds formulated in the form of gelatine capsules was orally administered at its dose (mg) which was accurately calculated on the basis of the body weight (kg) of the tested sheep.
The number of eggs, which were excreted along with feces from the sheep under test, was counted quantitatively both before and after the administration of the test compound. Thus, the extent of the anthelmintic effects of the test compound was evaluated. The test results are shown in Table 1 below, wherein the tested compounds are indicated by the code number of each substance tested. In Table 1, there is shown the dosage of test compound at which involvement of the excretion of eggs could not be observed at all, that is to say, the dosage of each novel cyclodespsipeptide derivative of PF1022 substance according to this invention at which the parasite could be expelled or exterminated completely.

[2] = system: Nippostrongylus brasiliensis; test: in vivo test on anthelmintic activity against Nippostrongylus brasiliensis in rats (adult parasites remaining in small intestine); settings: male Wister rats, oral, ten days after administration, vs infected untreated control
Procedure: "in vivo" Test on Anthelmintic Activity Against Nipostrongylus brasiliensis Male rats of Wister strain, which have been artificially infected with Nippostrongylus brasiliensis, were used as test animals. The administration dose (mg) of each test compound was accurately calculated on the basis of the body weight (kg) of each rat. Each compound tested was used in the form of a solution in dimethlsulfoxide or methanol. The solution was diluted with a Ringer solution and forcedly administered orally to the test rats. Ten days after the administration, the rats were dissected and the number of adult parasites remaining in the small intestines of the rats was counted. Efficacy was calculated in comparison with the number of adult parasites in the control group of test rats (infected, but untreated) and is shown in Table 2 below.

Row | Molecule | Adminstration dose (mg/kg): dosage at which excretion of eggs could not be observed at all (parasite expelled completely) [1] [mg/kg] | other results
1 | CC(C)C[C@H]1C(=O)O[C@H](Cc2ccccc2)C(=O)N(C)[C@@H](CC(C)C)C(=O)O[C@H](C)C(=O)N(C)[C@@H](CC(C)C)C(=O)O[C@H](Cc2ccccc2)C(=O)N(C)[C@@H](CC(C)C)C(=O)O[C@H](C)C(=O)N1C [PF1022 substance, Cyclo(L-MeLeu-D-Lac-L-MeLeu-D-PhLac-L-MeLeu-D-Lac-L-MeLeu-D-PhLac)] | 0.25 | Efficacy (%) ([2]; dosage 10 mg/kg): 80.2%
2 | CCN(CC)CCOc1ccc(C[C@H]2OC(=O)[C@H](CC(C)C)N(C)C(=O)[C@@H](C)OC(=O)[C@H](CC(C)C)N(C)C(=O)[C@@H](Cc3ccccc3)OC(=O)[C@H](CC(C)C)N(C)C(=O)[C@@H](C)OC(=O)[C@H](CC(C)C)N(C)C2=O)cc1 [PF1022-236, Cyclo[MeLeu-Lac-MeLeu-((C2 H5)2 NCH2 CH2 O)PhLac-MeLeu-Lac-MeLeu-PhLac]] | 0.01 | –
3 | COCCN(CCOC)CCOc1ccc(CC2OC(=O)C(CC(C)C)N(C)C(=O)C(C)OC(=O)C(CC(C)C)N(C)C(=O)C(Cc3ccccc3)OC(=O)C(CC(C)C)N(C)C(=O)C(C)OC(=O)C(CC(C)C)N(C)C2=O)cc1 (stereo not drawn) [PF1022-238, Cyclo[MeLeu-((CH3 OCH2 CH2)2 NCH2 CH2 O)PhLac-MeLeu-Lac-MeLeu-PhLac-MeLeu-Lac]] | 0.01 | –
4 | Cyclo[MeLeu-(Mor)PhLac-MeLeu-Lac-MeLeu-PhLac-MeLeu-Lac] [PF1022-233] | 0.05 | Efficacy (%) ([2]; dosage 1 mg/kg): 99.1%; Efficacy (%) ([2]; dosage 2 mg/kg): 100%; Efficacy (%) ([2]; dosage 5 mg/kg): 100%
5 | Cyclo[MeLeu-(Mor)PhLac-MeLeu-Lac] [reference compound] | 0.05 | –
6 | Cyclo[MeLeu-(MorCH2 CH2 O)PhLac-MeLeu-Lac-MeLeu-PhLac-MeLeu-Lac] [PF1022-239] | 0.025 | –
7 | Cyclo[MeLeu-(o-Mor)PhLac-MeLeu-Lac-MeLeu-(p-Mor)PhLac-MeLeu-Lac] [PF1022-280] | – | Efficacy (%) ([2]; dosage 1 mg/kg): 95.8%; Efficacy (%) ([2]; dosage 2 mg/kg): 99.3%; Efficacy (%) ([2]; dosage 5 mg/kg): 100%
8 | Cyclo[MeLeu-Lac-MeLeu-((C2 H5)2 NHCH2 CH2 O)PhLac]2 [PF1022-263] | 0.01 | –
9 | Cyclo[MeLeu-Lac-MeLeu-((C6 H5)2 CHOCO)Lac-MeLeu-Lac-MeLeu-PhLac] [PF1022-046] | 0.1 | –
10 | Cyclo[MeLeu-Lac-MeLeu-((C6 H5)2 CHOCO)Lac]2 [PF1022-045] | 0.1 | –
11 | Cyclo[MeLeu-Lac-MeLeu-((CH3)2 NCH2 CH2 O)PhLac-MeLeu-Lac-MeLeu-PhLac] [PF1022-235] | 0.1 | –
12 | Cyclo[MeLeu-Lac-MeLeu-(Bu2 NCH2 CH2 O)PhLac-MeLeu-Lac-MeLeu-PhLac] [PF1022-271] | – | Efficacy (%) ([2]; dosage 5 mg/kg): 100%
13 | Cyclo[MeLeu-Lac-MeLeu-(Pr2 NCH2 CH2 O)PhLac-MeLeu-Lac-MeLeu-PhLac] [PF1022-270] | – | Efficacy (%) ([2]; dosage 2 mg/kg): 94.2%; Efficacy (%) ([2]; dosage 5 mg/kg): 99.7%
14 | Cyclo[MeLeu-Lac-MeLeu-(furfuryloxy)PhLac-MeLeu-Lac-MeLeu-PhLac] [PF1022-312] | 0.05 | –
15 | Cyclo[MeLeu-Lac-MeLeu-(imidazolyl-4-methoxy)PhLac-MeLeu-Lac-MeLeu-PhLac] [PF1022-304] | 0.05 | –
16 | Cyclo[MeLeu-Lac-MeLeu-(pipCH2 CH2 O)PhLac-MeLeu-Lac-MeLeu-PhLac] [PF1022-285] | 0.1 | –
17 | Cyclo[MeLeu-Lac-MeLeu-(t-BuO)PhLac]2 [PF1022-222] | 0.05 | –
18 | Cyclo[MeLeu-Lac-MeLeu-PhLac-MeLeu-Lac-MeLeu-(NH2 CO)PhLac] [PF1022-242] | 0.01 | –
